# Test results: publication PMC8752738, “A propolis-derived small molecule ameliorates metabolic syndrome in obese mice by targeting the CREB/CRTC2 transcriptional complex” (Nature Communications, 2022)
# Where “and” joins values, the source holds several entries; their conditions need not be identical. Equal entries are not always repeated. Entries after “also recorded” stand apart in the source; their conditions may differ.
# Tests used:
# [1] = tested on: mouse Lxra promoter; assay: Truncated Lxra-LUC reporter in HEK293T; assay type: cell-based; details: for Relative luciferase reporter activity of mouse LXRa promotor deletion series, group mean (Mean 2) / Relative luciferase reporter activity of mouse LXRa promotor deletion series, group mean (Mean 1) / Relative luciferase reporter activity of mouse LXRa promotor deletion series: APC 10uM; for Relative luciferase reporter activity of mouse LXRa promotor deletion series: individual replicates
# Experimental: Fig. 7 APC inhibits SREBP1 expression via the CRE-LXRα-LXRE axis. a Quantitative PCR analysis of hepatic expressions of Lxra, Ppra, Pprg, Rxra in DIO mice, which were continuously i.p. injected with control vehicle (VEH) or APC (20 mg/kg) with indicated doses one time daily for 5 weeks (n = 6 per group). One of two independent experiments is shown here. Data are represented as mean ± SEM. *P < 0.05; **P < 0.01; P values were determined by two-way ANOVA followed Bonferroni’s multiple comparisons test. b Immunoblotting analysis of hepatic LXRα and premature SREBP1 protein levels in the livers of DIO mice injected APC for 5 weeks as (a). One of three independent experiments is shown here (left). The relative protein of LXRα, SREBP1, and PPARα normalized by GAPDH is shown as a bar graph (right) (n = 3). Data are represented as mean ± SEM. *P < 0.05; **P < 0.01; P values were determined by two-way ANOVA followed Bonferroni’s multiple comparisons test. c CHIP analysis LXRa and RXRa recruited to the promoter of the mouse Srebf1 (top) gene in primary hepatocytes from wild C57 mice and pretreated APC (10 μM) for 1-h (bottom) (n = 4 per treatment). One of three independent experiments presented here. Data are represented as mean ± SEM. *P < 0.05; **P < 0.01; P values were determined by two-way ANOVA followed Bonferroni multiple comparisons test. d CHIP analysis of CREB and CRTC2 occupancy over the half CRE sites in the Lxra promoter (Top) in primary mouse hepatocytes overexpressing CRTC2, pretreated with APC (10 μM) for 1-h prior to 1-h glucagon stimulation (Gluc, 100 nM) (bottom) (n = 4 per treatment). One of three independent experiments presented here. Data are represented as mean ± SEM. *P < 0.05; **P < 0.01; P values were determined by two-way ANOVA followed Bonferroni’s multiple comparisons test. e Reporter activity of truncated Lxra-LUC reporter. The luciferase reporter was driven by mouse Lxra promoter (−1342) or truncations (−784 and −178) co-transfected with MYC-Creb and FLAG-Crtc2-S171A in HEK293T cells, and pretreated with APC prior to stimulation with FSK (10 nM) for 4-h (n = 3 per treatment). One of three independent experiments presented here. Data are represented as mean ± SEM. *P < 0.05; **P < 0.01; P values were determined by two-way ANOVA followed Bonferroni’s multiple comparisons test. f Quantitative PCR analysis of the expression of CRTC2, Lxra, Srebf-1c, and Srebf-2, in primary hepatocytes, which were infected by LV-Crtc2-S171A or control and incubated with APC (10 μM) for 8-h (n = 3 per treatment). One of three independent experiments presented here. Data are represented as mean ± SEM. *P < 0.05; **P < 0.01; P values were determined by two-way ANOVA followed Bonferroni’s multiple comparisons test. g Quantitative PCR analysis of Lxra gene expression in the liver of CRTC2-KO mice. Be induced by high-fat diet for 8 weeks, with Crtc2-KO mice and wild-type littermates administered VEH (vehicle control), MET (metformin, 200 mg/kg), or APC (20 mg/kg) for 3 weeks, followed by fasting 8-h before anesthesia (n = 5 per group). Data are represented as mean ± SEM. *P < 0.05; **P < 0.01; P values of Crtc2 gene were determined by unpaired two-tailed t test with Welch’s correction, and P values of Lxra gene were determined by two-way ANOVA followed Bonferroni’s multiple comparisons test. h Immunoblotting analysis of LXRα protein in the liver of these mice as in (g). One of two independent experiments is presented here (top), and the relative concentration of LXRα normalized to ACTIN is shown as a bar graph (bottom). (n = 5 mice per group, two technological repeats represent a composite pool). Data are represented as mean ± SEM. *P < 0.05; **P < 0.01; P values were determined by two-way ANOVA followed Bonferroni’s multiple comparison test. Source data for this figure are provided as source data file.
# [2] = target: T1, CREB-CRTC2 interaction (Homo sapiens, UniProt P16220); assay: CREB–CRTC2 mammalian two-hybrid assay (GAL4-Luc reporter); assay type: cell-based; design: CREB/CRTC2 -luc activity %: concentration or dose not given beside the values; details: for relative Gal4-luc activity %: Fig 3b replicates
# T1 construct: expressed in transfected cells; host or cells: HEK293T
# T1 sequence (P16220 whole entry, the tested form may be a part): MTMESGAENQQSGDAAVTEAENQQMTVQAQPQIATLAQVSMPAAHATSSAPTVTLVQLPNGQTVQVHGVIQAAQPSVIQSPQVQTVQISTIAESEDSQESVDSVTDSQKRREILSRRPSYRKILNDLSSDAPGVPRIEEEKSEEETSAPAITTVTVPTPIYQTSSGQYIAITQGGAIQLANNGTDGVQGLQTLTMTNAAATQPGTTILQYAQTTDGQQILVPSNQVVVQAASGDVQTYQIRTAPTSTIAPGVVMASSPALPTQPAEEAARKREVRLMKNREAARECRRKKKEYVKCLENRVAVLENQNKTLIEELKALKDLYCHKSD
# [3] = target: T2, CRTC2 / SEC31A interaction (Mus musculus, UniProt Q3U182+Q3UPL0); assay: Co-immunoprecipitation CRTC2 / SEC31A; assay type: biochemical; details: APC 10 μM in IP mixture
# T2 construct: expressed in transfected cells; host or cells: HEK293
# T2 sequence (Q3U182 whole entry): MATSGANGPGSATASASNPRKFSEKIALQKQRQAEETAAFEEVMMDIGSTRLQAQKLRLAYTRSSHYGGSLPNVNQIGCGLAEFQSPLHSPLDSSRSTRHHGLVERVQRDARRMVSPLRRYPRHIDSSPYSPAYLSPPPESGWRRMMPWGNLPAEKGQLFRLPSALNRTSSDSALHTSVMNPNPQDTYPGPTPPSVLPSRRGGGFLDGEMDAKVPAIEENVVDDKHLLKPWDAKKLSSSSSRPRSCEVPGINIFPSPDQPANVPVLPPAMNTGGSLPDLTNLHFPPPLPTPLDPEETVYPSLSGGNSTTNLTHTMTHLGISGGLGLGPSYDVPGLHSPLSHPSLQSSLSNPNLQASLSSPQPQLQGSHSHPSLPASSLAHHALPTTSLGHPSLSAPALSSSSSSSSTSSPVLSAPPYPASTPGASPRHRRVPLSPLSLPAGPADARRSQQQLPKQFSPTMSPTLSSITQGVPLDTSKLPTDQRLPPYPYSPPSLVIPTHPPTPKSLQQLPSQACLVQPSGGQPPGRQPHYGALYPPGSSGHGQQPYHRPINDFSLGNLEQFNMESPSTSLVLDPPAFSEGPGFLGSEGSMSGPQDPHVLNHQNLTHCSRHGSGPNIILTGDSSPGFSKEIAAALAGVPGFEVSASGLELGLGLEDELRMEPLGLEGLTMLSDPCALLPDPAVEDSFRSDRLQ
# T2 sequence (Q3UPL0 whole entry): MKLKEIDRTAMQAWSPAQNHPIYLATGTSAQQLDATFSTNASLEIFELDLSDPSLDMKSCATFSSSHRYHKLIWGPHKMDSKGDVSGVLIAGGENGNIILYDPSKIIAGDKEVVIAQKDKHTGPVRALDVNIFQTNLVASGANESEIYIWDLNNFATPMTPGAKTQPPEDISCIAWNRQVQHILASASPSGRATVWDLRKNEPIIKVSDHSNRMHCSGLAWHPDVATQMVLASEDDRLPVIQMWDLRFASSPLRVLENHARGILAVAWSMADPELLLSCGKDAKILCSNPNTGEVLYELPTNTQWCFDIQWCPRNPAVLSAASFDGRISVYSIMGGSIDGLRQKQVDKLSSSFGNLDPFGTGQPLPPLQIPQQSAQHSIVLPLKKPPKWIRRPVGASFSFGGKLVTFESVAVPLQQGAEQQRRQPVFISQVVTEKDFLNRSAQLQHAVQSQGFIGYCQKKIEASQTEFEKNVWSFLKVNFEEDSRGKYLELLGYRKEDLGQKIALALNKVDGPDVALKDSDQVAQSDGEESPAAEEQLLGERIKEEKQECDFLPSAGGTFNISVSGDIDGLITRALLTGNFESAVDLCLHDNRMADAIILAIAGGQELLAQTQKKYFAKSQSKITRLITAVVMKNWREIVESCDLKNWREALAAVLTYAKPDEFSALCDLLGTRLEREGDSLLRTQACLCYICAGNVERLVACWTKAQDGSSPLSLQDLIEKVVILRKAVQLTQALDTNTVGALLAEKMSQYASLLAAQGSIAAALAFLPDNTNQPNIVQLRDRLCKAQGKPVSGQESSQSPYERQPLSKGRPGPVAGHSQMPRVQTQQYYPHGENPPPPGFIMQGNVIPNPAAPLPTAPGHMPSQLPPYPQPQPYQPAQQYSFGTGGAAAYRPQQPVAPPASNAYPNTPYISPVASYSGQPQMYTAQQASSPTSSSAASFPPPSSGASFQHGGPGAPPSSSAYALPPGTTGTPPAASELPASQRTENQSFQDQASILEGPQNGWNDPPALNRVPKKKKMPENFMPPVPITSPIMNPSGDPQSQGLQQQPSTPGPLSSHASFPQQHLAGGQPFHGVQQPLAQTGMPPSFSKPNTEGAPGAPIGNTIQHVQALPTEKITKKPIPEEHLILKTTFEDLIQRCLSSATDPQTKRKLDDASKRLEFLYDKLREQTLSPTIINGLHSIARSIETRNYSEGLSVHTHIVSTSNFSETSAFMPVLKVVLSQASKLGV
# Experimental: 1 b) Immunoprecipitation of SEC31A from HEK293 cell lysates with overexpressed […] or
# 2 FLAG-Crtc2-WT. APC (10 μM) was added to the IP mixture overnight. One of two independent
# 3 experiments is shown here. […]
# 5 administered MET and APC as in (a). Data are represented as mean ± SEM (n=6 per group). *,
# 6 p < 0.05; **, p < 0.01; p values were determined by two-way ANOVA followed Bonferroni’s multiple
# 7 comparisons test. Source data for this figure are provided as a Source data file.
smiles,measurement,setting,value
"CC(C)=CCc1cc(C=CC(=O)O)cc(CC=C(C)C)c1O [APC, 3,5-diprenyl-4-hydroxycinnamic acid]","Relative luciferase reporter activity of mouse LXRa promotor deletion series, group mean (Mean 2)","[1]; -178, CREB/CRTC2-S171A +, Ctrl (no FSK), mean of N=3",80.85
same,"Relative luciferase reporter activity of mouse LXRa promotor deletion series, group mean (Mean 1)","[1]; -178, CREB/CRTC2-S171A +, FSK, mean of N=3",101.4
same,"Lxra-LUC reporter activity, Mean","[1]; -178 construct, Ctrl (no FSK), mean of N=3, -1342_Ctrl = 100",80.85
same,"Lxra-LUC reporter activity, Mean","[1]; -178 construct, FSK, mean of N=3, -178_Ctrl with FSK = 80.5",101.4
same,"Relative luciferase reporter activity of mouse LXRa promotor deletion series, group mean (Mean 2)","[1]; -784, CREB/CRTC2-S171A +, Ctrl (no FSK), mean of N=3",65.74
same,"Relative luciferase reporter activity of mouse LXRa promotor deletion series, group mean (Mean 1)","[1]; -784, CREB/CRTC2-S171A +, FSK, mean of N=3",80.88
same,"Lxra-LUC reporter activity, Mean","[1]; -784 construct, Ctrl (no FSK), mean of N=3, -1342_Ctrl = 100",65.74
same,"Lxra-LUC reporter activity, Mean","[1]; -784 construct, FSK, mean of N=3, -784_Ctrl with FSK = 84.79",80.88
same,"Relative luciferase reporter activity of mouse LXRa promotor deletion series, group mean (Mean 2)","[1]; -1342, CREB/CRTC2-S171A +, Ctrl (no FSK), mean of N=3",120.4
same,"Relative luciferase reporter activity of mouse LXRa promotor deletion series, group mean (Mean 1)","[1]; -1342, CREB/CRTC2-S171A +, FSK, mean of N=3",140.5
same,"Lxra-LUC reporter activity, Mean","[1]; -1342 construct, Ctrl (no FSK), mean of N=3, -1342_Ctrl = 100",120.4
same,"Lxra-LUC reporter activity, Mean","[1]; -1342 construct, FSK, mean of N=3, -1342_Ctrl with FSK = 265.7",140.5
same,Lxrα-luc reporter activity,"[1]; HEK293T, FSK, attenuated when half CRE site −984 deleted",inhibition of Lxrα-luc reporter activity
same,Relative luciferase reporter activity of mouse LXRa promotor deletion series,"[1]; mLXRa promoter region -178, CREB/CRTC2-S171A +, Ctrl (no FSK)",68.909
same,Relative luciferase reporter activity of mouse LXRa promotor deletion series,"[1]; mLXRa promoter region -178, CREB/CRTC2-S171A +, Ctrl (no FSK), unstimulated control",81.477 and 92.1755
same,Relative luciferase reporter activity of mouse LXRa promotor deletion series,"[1]; mLXRa promoter region -178, CREB/CRTC2-S171A +, FSK, FSK stimulated",110.535 and 84.2634 and 109.449
same,Relative luciferase reporter activity of mouse LXRa promotor deletion series,"[1]; mLXRa promoter region -784, CREB/CRTC2-S171A +, Ctrl (no FSK)",58.3809
same,Relative luciferase reporter activity of mouse LXRa promotor deletion series,"[1]; mLXRa promoter region -784, CREB/CRTC2-S171A +, Ctrl (no FSK), unstimulated control",73.0822 and 65.7554
same,Relative luciferase reporter activity of mouse LXRa promotor deletion series,"[1]; mLXRa promoter region -784, CREB/CRTC2-S171A +, FSK, FSK stimulated",83.8052 and 88.4723 and 70.3736
same,Relative luciferase reporter activity of mouse LXRa promotor deletion series,"[1]; mLXRa promoter region -1342, CREB/CRTC2-S171A +, Ctrl (no FSK)",97.1063
same,Relative luciferase reporter activity of mouse LXRa promotor deletion series,"[1]; mLXRa promoter region -1342, CREB/CRTC2-S171A +, Ctrl (no FSK), unstimulated control",135.223 and 128.99
same,Relative luciferase reporter activity of mouse LXRa promotor deletion series,"[1]; mLXRa promoter region -1342, CREB/CRTC2-S171A +, FSK, FSK stimulated",139.251 and 135.05 and 147.302
same,remaining activity at 1000 µM,"[2]; 16 h, Figure 9b, Log10(M) -3, single replicates, read-out: Gal4-LUC reporter activiry, %",0.439%
same,remaining activity at 100 µM,"[2]; 16 h, Figure 9b, Log10(M) -4, single replicates, read-out: Gal4-LUC reporter activiry, %",0.257%
same,remaining activity at 1 µM,"[2]; 16 h, Figure 9b, Log10(M) -6, single replicates, read-out: Gal4-LUC reporter activiry, %",36.2%
same,remaining activity at 0.1 µM,"[2]; 16 h, Figure 9b, Log10(M) -7, single replicates, read-out: Gal4-LUC reporter activiry, %",71.6%
same,remaining activity at 0.01 µM,"[2]; 16 h, Figure 9b, Log10(M) -8, single replicates, read-out: Gal4-LUC reporter activiry, %",92.8%
same,remaining activity at 0.001 µM,"[2]; 16 h, Figure 9b, Log10(M) -9, single replicates, read-out: Gal4-LUC reporter activiry, %",74.9%
same,remaining activity at 0.0001 µM,"[2]; 16 h, Figure 9b, Log10(M) -10, single replicates, read-out: Gal4-LUC reporter activiry, %",102%
same,relative Gal4-luc activity %,[2]; APC Log10(M) -3,0.3266% and 0.2637% and 0.3128%
same,relative Gal4-luc activity %,[2]; APC Log10(M) -4,10.2018% and 10.3248% and 10.277%
same,relative Gal4-luc activity %,[2]; APC Log10(M) -5,61.3194% and 69.9978% and 76.9726%
same,relative Gal4-luc activity %,[2]; APC Log10(M) -6,65.67% and 82.3932% and 92.7658%
same,relative Gal4-luc activity %,[2]; APC Log10(M) -7,64.5839% and 85.9224% and 107.618%
same,relative Gal4-luc activity %,[2]; APC Log10(M) -8,99.4977% and 99.5841% and 100.918%
same,relative Gal4-luc activity %,[2]; APC Log10(M) -9,107.021% and 111.522% and 103.779%
same,"Relative Gal4-LUC activity, single replicates","[2]; Figure 1f, CREB-CRTC2 two-hybrid assay, DMSO control about 100, listed as P3",21.4874 and 38.8421 and 27.0437
same,reporter activity of CREB–CRTC2 two-hybrid assay,"[2]; HEK293T, isolated compound 25 μM, listed as P3",significantly inhibited; also recorded: most potent
same,Related Gal4-luc %,"[2]; Supp. Fig.10 a, individual replicates, Ctrl about 97",42.290% and 38.150% and 46.110% and 51.003%
same,"Related Gal4-luc %, group mean (Test details, Mean 2)","[2]; Supp. Fig.10 a, mean of n=4, CTRL mean 96.58",44.39%
same,CREB/CRTC2 -luc activity %,"[2]; Supp. Fig.10 b, individual replicates, Ctrl about 100",51.481% and 56.411% and 65.126%
same,IC50,"[2]; cell-based two-hybrid assay, HEK293T cells, read-out: IC50 for disrupting CREB–CRTC2 interaction",~24.5 µM and 24.5 µM
same,protein interaction between CRTC2 and SEC31A,[3],no impact
